Assay results as given in patent US8377963B2, “Insulin-regulated aminopeptidase (IRAP) inhibitors and uses thereof” (Howard Florey Institute, priority 2007, dated 2013).

Columns and labels:
[1] = biological target: T1, IRAP (Homo sapiens, UniProt Q9UIQ6); assay: IRAP enzymatic assay (hydrolysis of Leu-MCA); assay type: biochemical; conditions: substrate Leu-MCA, solubilized membranes of HEK 293T cells transfected with IRAP
T1 construct: expressed in transfected cells; host or cells: HEK 293T
Description: An in vitro enzymatic assay was used to initially assess IRAP inhibitory activity.
After solubilization, the membranes were pelleted by centrifugation at 23,100 g for 15 min at 4° C., and the supernatant was reserved as the source of IRAP activity. The enzymatic activities of IRAP were determined by the hydrolysis of the synthetic substrate Leu-MCA (Sigma-Aldrich, Missouri, USA) monitored by the release of a fluorogenic product, MCA, at excitation and emission wavelengths of 380 and 440 nm, respectively. Assays were performed in 96-well plates; each well contains between […] solubilized membrane protein, a range of concentration of substrate in a final volume of 100 μL 50 mM Tris-HCl buffer (pH 7.4). Non-specific hydrolysis of the substrate was corrected by subtracting the emission from incubations with membranes transfected with empty vector. Reactions proceeded at 37° C. for 30 min within a thermostatted FLEX station fluorescence microplate reader (Molecular Devices, Sunnyvale, Calif.). […] Km values of IRAP for Leu-MCA were determined from the kinetic studies. […] All data obtained were from at least three separate experiments performed in duplicate.

[2] = biological target: T2, Recombinant human LTA4H (Homo sapiens, UniProt P09960); assay: Leukotriene A4 hydrolase assay; assay type: biochemical; conditions: 100 μM; read-out: % inhibition of the catalytic activity of the enzyme
T2 construct: purchased Cayman Chemicals
T2 sequence (P09960 1-611): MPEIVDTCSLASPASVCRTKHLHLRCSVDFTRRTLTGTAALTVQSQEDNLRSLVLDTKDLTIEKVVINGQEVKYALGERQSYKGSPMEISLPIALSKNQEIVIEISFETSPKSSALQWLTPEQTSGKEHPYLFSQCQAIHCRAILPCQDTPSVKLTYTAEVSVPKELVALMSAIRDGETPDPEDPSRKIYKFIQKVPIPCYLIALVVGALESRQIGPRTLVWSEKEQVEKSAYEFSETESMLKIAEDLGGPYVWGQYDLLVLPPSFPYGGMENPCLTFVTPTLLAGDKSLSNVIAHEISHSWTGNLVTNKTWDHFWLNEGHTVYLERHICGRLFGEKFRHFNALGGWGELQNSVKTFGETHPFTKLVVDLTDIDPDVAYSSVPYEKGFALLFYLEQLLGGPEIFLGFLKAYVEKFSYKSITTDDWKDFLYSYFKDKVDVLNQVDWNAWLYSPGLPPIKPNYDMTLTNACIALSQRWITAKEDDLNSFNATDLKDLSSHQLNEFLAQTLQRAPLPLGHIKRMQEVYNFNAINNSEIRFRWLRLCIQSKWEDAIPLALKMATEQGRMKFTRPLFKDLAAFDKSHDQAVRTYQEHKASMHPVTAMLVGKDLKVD
Description: Leukotriene A4 hydrolase assay. Recombinant human LTA4H (Cayman Chemicals Michigan USA) (1-20 μg) was incubated at room temperature with alanine-p-nitroanilide as substrate in 50 mM Tris-HCl buffer, pH 8.0, containing 100 mM KCl with or without increasing concentrations of an inhibitor. The absorbance at 405 nm was measured at 10 min intervals.
Limited inhibition of control enzymes was observed.

[3] = system: rats; assay: Locomotor cell activity; assay type: in vivo, rat; conditions: 30 mins; for Distance travelled (% control): rats, n=8 per group
Description: All experiments were performed according to the National Health and Medical Research Council of Australia “Code of practise for the care and use of animals for scientific purposes”. Male Spraque Dawley rats, (250-270 g) are housed individually and given water and standard rat chow ad libitum. On the day of surgery, the rats were anaesthetized with 5% isofluorane, placed in a stereotaxic frame and maintained on 2% isofluorane for the duration of the cannula implantation procedure. The rats were stereotaxically implanted with chronic indwelling cannula (Plastics One) into the cerebral lateral ventricles using the following flat skull coordinates 0.8 mm posterior to Bregma, 1.55 mm lateral to midline and 3.5 mm ventral to the dura. The cannula was then secured to the skull with stainless steel screws and dental cement. Seven days following surgery, proper cannula placement was verified by a bolus injection of angiotensin II (1 nmol/μl).
Locomotor activity of rats treated with 1 nmol Compound 2 intracerebrocentricularly was monitored in special cages measuring 40×40×40 cm (Coulbourn Instruments, Philadelphia, USA) equipped with harmless infrared photobeams. Activity was measured when pairs of photobeams spaced 2.54 cm apart providing a 1.27 cm spatial resolution were crossed. Data was collected and analysed using TruScan Photo Beam Activity system (Coulbourn Instruments, Philadelphia, USA). Each rat was placed in the arena for 30 min.

[4] = system: hippocampal slices; assay: Hippocampal glucose uptake assay; assay type: cell-based; conditions: rat hippocampal slices
Description: Hippocampal glucose uptake assay. Eight week old male Spraque-Dawley rats were deeply anaesthetised with Isofluorothane and killed by decapitation. The brains were rapidly removed and placed into ice-cold, 95% O2, 5% CO2-bubbled artificial cerebrospinal fluid (aCSF: 124 mM NaCl, 2.5 mM KCl, 2 mM CaCl2, 2 mM MgSO4, 26 mM NaHCO3, 1.25 mM NaH2 PO4 pH 7.4) supplemented with 10 mM D-glucose (Sigma). Under aCSF, the hippocampal hemispheres were rapidly dissected out and 200 μm slices prepared on McIllwain tissue chopper with an ice-cold blade and stage. Slices from each hemisphere were kept together and transferred to freshly 95% O2, 5% CO2-bubbled aCSF supplemented with 10 mM D-glucose at 37° C. for 1 hour. All subsequent steps were carried out at 37° C. in a gently shaking chamber with continuous infusion of 95% O2, 5% CO2. Slices from one hemisphere were used as a basal control while slices from the other hemisphere were stimulated, providing an internal control for each animal. […] Tritium content was measured in a Liquid Scintillation Analyser 1900TR (Perkin Elmer, MA, USA).

T1 sequence (Q9UIQ6 whole entry): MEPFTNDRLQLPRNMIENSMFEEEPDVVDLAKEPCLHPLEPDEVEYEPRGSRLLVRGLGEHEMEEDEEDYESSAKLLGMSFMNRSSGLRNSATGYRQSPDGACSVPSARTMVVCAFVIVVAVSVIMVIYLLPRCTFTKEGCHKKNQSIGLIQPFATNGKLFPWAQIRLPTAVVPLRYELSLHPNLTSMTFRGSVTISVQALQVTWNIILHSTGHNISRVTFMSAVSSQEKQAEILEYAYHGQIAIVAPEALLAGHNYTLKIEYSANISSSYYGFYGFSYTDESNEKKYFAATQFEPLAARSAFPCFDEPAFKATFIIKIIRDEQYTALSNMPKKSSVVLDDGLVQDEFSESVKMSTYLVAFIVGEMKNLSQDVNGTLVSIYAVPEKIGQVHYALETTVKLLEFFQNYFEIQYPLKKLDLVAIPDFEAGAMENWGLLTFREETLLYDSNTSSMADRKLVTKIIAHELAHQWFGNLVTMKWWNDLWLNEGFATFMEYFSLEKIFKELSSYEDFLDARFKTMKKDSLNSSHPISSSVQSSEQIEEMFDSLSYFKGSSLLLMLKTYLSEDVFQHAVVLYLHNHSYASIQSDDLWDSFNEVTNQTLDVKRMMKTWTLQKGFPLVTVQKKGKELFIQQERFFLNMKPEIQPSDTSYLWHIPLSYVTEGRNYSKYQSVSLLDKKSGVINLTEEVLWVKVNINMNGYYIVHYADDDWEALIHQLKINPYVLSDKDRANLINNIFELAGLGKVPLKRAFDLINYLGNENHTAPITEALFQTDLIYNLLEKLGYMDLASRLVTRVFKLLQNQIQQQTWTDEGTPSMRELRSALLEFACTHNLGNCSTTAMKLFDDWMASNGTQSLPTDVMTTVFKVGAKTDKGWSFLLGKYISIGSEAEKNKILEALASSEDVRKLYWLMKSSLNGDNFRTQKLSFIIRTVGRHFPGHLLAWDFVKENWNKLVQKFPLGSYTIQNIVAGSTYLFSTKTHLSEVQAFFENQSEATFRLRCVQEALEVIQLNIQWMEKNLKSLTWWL

CCOC(=O)C1=C(NC(C)=O)Oc2cc(O)ccc2C1c1cccnc1 (centres unmarked) [Compound 2, Ethyl 2-(acetylamino)-7-hydroxy-4-pyridin-3-yl-4H-chromene-3-carboxylate]
IC50 [1]: 790 nM | Ki ([1]; calculated from IC50=Ki(1+[S]/Km), read-out: K1): 480 nM | inhibition at 100 µM [2]: 0% | Distance travelled (% control) ([3]; 0.1 nmol intracerebroventricularly): 85.12 ± 12.99 % control | Distance travelled (% control) ([3]; 1 nmol intracerebroventricularly): 90.16 ± 6.73 % control | locomotor activity compared to vehicle, by crossing of infrared beams and total distance travelled ([3]; 0.1 and 1 nmol intracerebroventricularly): did not exhibit increased or decreased locomotor activity | Fold change in 3H-2DOG uptake ([4]; dbcAMP & compound versus dbcAMP alone (=1), 100 nM): 1.7 | dibutyryl cAMP-evoked glucose uptake [4]: increase in dibutyryl cAMP-evoked glucose uptake
